Patent US10030016B2 (Sunesis Pharmaceuticals, Inc., priority 2009, dated 2018)
Where two headings read alike, the source gives them in different places.

What was measured:
PDK1 = PDK1 (Homo sapiens (Human), UniProt O15530); experiment: PDK1 kinase assay (coupled PDK1/AKT/FAM-crosstide assay, IMAP fluorescence polarization); assay type: biochemical
How it was run: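 Inhibition is derived by 4-parameter fitting of ΔmP from an IMAP fluorescence polarization read of FAM-crosstide (100 nM) phosphorylation. The cascade ran 30 min at 25 °C with 40 μM ATP, using insect-cell GST-PDK1 51-359 (0.75 nM) driving 10 nM unphosphorylated AKT2 140-467-PIFtide fusion.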

[1] = tested on: phospho-akt (Thr308) in PC-3 cells; experiment: Inhibition of phospho-akt (Thr308) in PC-3 cells, MSD phospho-akt 308 ELISA kit; assay type: cell-based; conditions: Homo sapiens, 2 hours, no serum, read-out: EC50
How it was run: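 PC-3 cells (15,000/well, overnight in 10% FBS medium) treated 2 h with three-fold diluted compounds in serum-free medium; DMSO high and 5 μM wortmannin low controls. Lysates captured on BSA-blocked MSD plates overnight at 4 °C, then 1 h antibody detection at RT; phospho-Akt Thr308 read by MSD electrochemiluminescence.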

[2] = inhibition of phospo-PDK1 in vitro
[3] = inhibition of P308 Akt in PC-3 cells, MSD
[4] = inhibition of P308 Akt in PC-3 cells using MSD

PDK1, sequence (O15530 51-359): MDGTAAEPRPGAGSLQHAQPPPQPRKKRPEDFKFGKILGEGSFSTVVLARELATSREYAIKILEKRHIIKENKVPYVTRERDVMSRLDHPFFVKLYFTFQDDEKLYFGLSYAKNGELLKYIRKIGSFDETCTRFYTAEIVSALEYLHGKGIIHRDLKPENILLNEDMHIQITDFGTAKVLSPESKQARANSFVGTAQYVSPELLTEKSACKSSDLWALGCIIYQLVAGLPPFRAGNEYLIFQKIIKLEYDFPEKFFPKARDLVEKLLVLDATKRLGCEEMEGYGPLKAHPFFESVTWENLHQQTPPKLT

SMILES: Nc1n[nH]c2ncc(-c3ccc(CNc4ncc(C(F)(F)F)cc4C(=O)NC[C@@H]4CCCO4)cc3)cc12 [Example 309, (S)-2-(4-(3-amino-1H-pyrazolo [3,4-b]pyridin-5-yl)benzylamino)-N-((tetrahydrofuran-2-yl)methyl)-5-(trifluoromethyl) nicotinamide]
- IC50 (PDK1; inhibition of PDK1 in vitro): 0.1 to 1 µM
- EC50 ([1]; PC-3, 2 h, inhibition of P308 Akt in PC-3 cells using MSD): 1 to 10 µM

SMILES: Nc1ncnc2[nH]cc(-c3ccc(CNc4ncccc4C(=O)NCc4ccc(F)c(F)c4)s3)c12 [Example 4.8, 2-(((5-(4-amino-7H-pyrrolo[2,3-d]pyrimidin-5-yl)thiophen-2-yl)methyl)amino)-N-(3,4-difluorobenzyl)nicotinamide]
- IC50 (PDK1; [2]): < 0.1 µM
- EC50 [1, 3]: < 1 µM

SMILES: C[C@H](NC(=O)c1cccnc1NCc1ccc(-c2cnc(N)cn2)cc1)c1ccc(F)c(F)c1 [Example 380, (S)-2-(4-(5-aminopyrazin-2-yl)benzylamino)-N-(1-(3,4-difluorophenyl)ethyl) nicotinamide]
- IC50 (PDK1; inhibition of PDK1 in vitro): 0.1 to 1 µM
- EC50 [1, 4]: 1 to 10 µM

SMILES: C[C@H](NC(=O)c1cccnc1NCc1ccc(-c2ccc3ncc(N(C)C)nc3c2)s1)c1ccc(F)c(F)c1 [Example 4.27, (S)-N-(1-(3,4-difluoro-phenyl)ethyl)-2-(((5-(3-(dimethylamino)quinoxalin-6-yl)thiophen-2-yl)methyl)amino)nicotinamide]
- IC50 (PDK1; [2]): 1 to 5 µM
- EC50 [1, 3]: > 10 µM

SMILES: C[C@H](NC(=O)c1cc(C#N)cnc1NCc1ccc(-c2cnc(N)c(C(=O)N(C)C)c2)cc1)c1ccc(F)cc1 [Example 205, (S)-2-amino-5-(4-((5-cyano-3-(1-(4-fluorophenyl)ethylcarbamoyl)pyridin-2-ylamino)methyl)phenyl)-N,N-dimethylnicotinamide]
- IC50 (PDK1; inhibition of PDK1 in vitro): 0.1 to 1 µM
- EC50 [1, 4]: 1 to 10 µM

SMILES: N#Cc1cnc(NCc2ccc(-c3ccc(N)nc3)cc2)c(C(=O)NCc2cncc(F)c2)c1 [Example 310, 2-(4-(6-aminopyridin-3-yl)benzylamino)-5-cyano-N-((5-fluoropyridin-3-yl)methyl)nicotinamide]
- IC50 (PDK1; inhibition of PDK1 in vitro): < 0.1 µM
- EC50 [1, 4]: < 1 µM
